Experiment [1] has as its system NCI/ADR-RES. As to the kind of experiment: compound was tested in vitro for inhibition activity against doxorubicin resistant counterpart of human breast carcinoma line cells. It is filed as functional, cell-based.
The test system of experiment [2] is MCF7. As to the kind of experiment: compound was tested in vitro for inhibition activity against a sensitive human breast carcinoma line cells. In kind it is functional, cell-based.

The structures appear in SMILES notation.

Take `COc1cccc2c1C(=O)c1c(O)c3c(c(O)c1C2=O)C[C@@](O)(C(C)=O)C[C@@H]3O[C@H]1C[C@H](N)[C@H](O)[C@H](C)O1` [DAUNORUBICIN]: the IC50 in experiment [1] is recorded as 2000 nM equiv l-1; in experiment [2], 60 nM equiv l-1.
In the same order, the values of `COc1cccc2c1C(=O)c1c(O)c3c(c(O)c1C2=O)C[C@@](O)(C(=O)CO)C[C@@H]3OC1CC2C(OCN2CN2COC3C(C)OC(O[C@H]4C[C@](O)(C(=O)CO)Cc5c(O)c6c(c(O)c54)C(=O)c4c(OC)cccc4C6=O)CC32)C(C)O1` (stereo partly drawn) [DOXOFORM] are 1 nM equiv l-1 and 2 nM equiv l-1.
In the case of `COc1cccc2c1C(=O)c1c(O)c3c(c(O)c1C2=O)C[C@@](O)(C(C)=O)C[C@@H]3OC1CC2C(OCN2CN2COC3C(C)OC(O[C@H]4C[C@](O)(C(C)=O)Cc5c(O)c6c(c(O)c54)C(=O)c4c(OC)cccc4C6=O)CC32)C(C)O1` (stereo partly drawn) [DAUNOFORM], the figures for the IC50 in experiment [1] and in experiment [2] were 10 nM equiv l-1 and 8 nM equiv l-1, respectively.
In the same order, the values of `COc1cccc2c1C(=O)c1c(O)c3c(c(O)c1C2=O)C[C@@](O)(C(=O)CO)C[C@@H]3O[C@H]1C[C@H](N)[C@H](O)[C@H](C)O1` [DOXORUBICIN] are 10000 nM equiv l-1 and 300 nM equiv l-1.
